ChEMBL document CHEMBL1201862, “PubChem BioAssay data set” (2004)
Activity calls are given as the source filed them.

What was measured:
[1] = A Cell Based Secondary Assay To Explore Cytotoxicity of Compounds that Sensitize Mycobacterium Tuberculosis to Beta-Lactam Antibiotics.; type: functional
[2] = target: T1, E3 ubiquitin-protein ligase XIAP (Homo sapiens, UniProt P98170); assay: XIAP antagonists, biochemical, IAP family, fluorescence polarization (AID 1018); type: functional
[3] = target: T1, E3 ubiquitin-protein ligase XIAP; assay: Counter Screen using XIAP-Bir3 for Chemical Antagonists of Bir1/2 domains of IAP-family anti-apoptotic proteins. [Related pubchem assays (depositor defined):AID1018, AID1449, AID1514, AID1638, AID1749, AID1750, AID488957, AID488963]
HEK293 = assay: inhibitors of LMP1-driven NF-kB reporter, dose response, cell-based, HEK293, luciferase, cherry-pick (AID 588343); type: functional; conditions: Homo sapiens
[4] = THP-1 cell cytotoxicity, dose response, cytotoxicity control for Vif-APOBEC3G degradation inhibitor project, THP-1 cells (AID 1117359); type: functional; conditions: Human immunodeficiency virus 1, THP-1
[5] = A cytotoxicity screen of small molecule inhibitors of the PhoP region in Salmonella typhi identified in the primary screen. [Related pubchem assays: 1850, 1864, 1985 ]; type: functional
Coagulation factor XII = target: T2, Coagulation factor XII (Homo sapiens, UniProt P00748); type: functional;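 note: activated factor XIIa alpha cleaving a fluorogenic AMC peptide substrate; inhibitor potency from loss of enzyme activity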
T2 sequence (P00748 whole entry): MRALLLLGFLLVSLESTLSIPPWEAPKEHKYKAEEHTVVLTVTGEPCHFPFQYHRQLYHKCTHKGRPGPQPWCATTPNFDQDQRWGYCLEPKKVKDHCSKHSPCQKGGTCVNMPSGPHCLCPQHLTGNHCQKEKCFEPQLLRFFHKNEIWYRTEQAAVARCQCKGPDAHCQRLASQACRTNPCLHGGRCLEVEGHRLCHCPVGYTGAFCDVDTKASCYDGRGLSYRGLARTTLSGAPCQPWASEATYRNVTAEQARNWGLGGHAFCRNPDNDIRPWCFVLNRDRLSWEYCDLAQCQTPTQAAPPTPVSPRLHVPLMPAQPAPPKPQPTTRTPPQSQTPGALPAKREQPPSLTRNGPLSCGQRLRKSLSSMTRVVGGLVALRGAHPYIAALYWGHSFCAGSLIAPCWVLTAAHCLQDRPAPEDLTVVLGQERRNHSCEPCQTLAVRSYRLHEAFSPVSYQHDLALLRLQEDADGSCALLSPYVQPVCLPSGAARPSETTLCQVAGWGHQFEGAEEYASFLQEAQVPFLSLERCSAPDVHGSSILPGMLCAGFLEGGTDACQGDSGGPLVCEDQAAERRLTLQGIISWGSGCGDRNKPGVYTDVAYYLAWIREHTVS

[6] = growth suppression of beta-catenin-knockout colon cells, dose response, cell-based, HCT116, human colon tumor (AID 1045); type: functional;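 note: HCT116 colon tumor cells with beta catenin knocked out; cells exposed to compound for 60 hours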
[7] = target: T3, Oxysterols receptor LXR-beta (Homo sapiens, UniProt P55055); assay: LXR agonists, Gal4 luciferase reporter, dose response, counter-screen for ssDAF-12 agonist project, cell-based, luminescence, HEK293, S. stercoralis campaign (AID 720737); type: functional; conditions: read-out: IC50 (the source's name)
T3 sequence (P55055 whole entry): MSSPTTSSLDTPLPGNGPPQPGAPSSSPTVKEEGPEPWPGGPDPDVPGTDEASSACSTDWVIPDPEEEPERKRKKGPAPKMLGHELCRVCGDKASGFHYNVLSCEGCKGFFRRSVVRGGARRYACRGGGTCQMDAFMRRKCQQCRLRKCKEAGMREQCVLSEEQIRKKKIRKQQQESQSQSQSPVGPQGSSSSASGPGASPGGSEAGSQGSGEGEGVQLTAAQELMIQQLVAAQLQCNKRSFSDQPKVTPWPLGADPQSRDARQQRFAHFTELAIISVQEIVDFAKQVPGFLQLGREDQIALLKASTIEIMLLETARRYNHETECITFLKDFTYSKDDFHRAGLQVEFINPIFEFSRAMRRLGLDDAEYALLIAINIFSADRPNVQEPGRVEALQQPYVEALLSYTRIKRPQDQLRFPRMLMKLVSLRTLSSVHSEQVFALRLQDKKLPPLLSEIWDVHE

[8] = Luminescence-based cell-based high throughput dose response assay to identify activators of the DAF-12 from the parasite S. stercoralis (ssDAF-12).; type: functional
Prothrombin = Prothrombin (Homo sapiens, UniProt P00734); assay: Thrombin 1536 HTS Dose Response Confirmation. [Related pubchem assays: 1046 (Thrombin 1536 HTS; hits were confirmed in this assay)]; type: functional
[9] = target: Induced myeloid leukemia cell differentiation protein Mcl-1 (Homo sapiens, UniProt Q07820); type: functional
Chain of Induced myeloid leukemia cell differentiation protein Mcl-1 (Q07820 whole entry): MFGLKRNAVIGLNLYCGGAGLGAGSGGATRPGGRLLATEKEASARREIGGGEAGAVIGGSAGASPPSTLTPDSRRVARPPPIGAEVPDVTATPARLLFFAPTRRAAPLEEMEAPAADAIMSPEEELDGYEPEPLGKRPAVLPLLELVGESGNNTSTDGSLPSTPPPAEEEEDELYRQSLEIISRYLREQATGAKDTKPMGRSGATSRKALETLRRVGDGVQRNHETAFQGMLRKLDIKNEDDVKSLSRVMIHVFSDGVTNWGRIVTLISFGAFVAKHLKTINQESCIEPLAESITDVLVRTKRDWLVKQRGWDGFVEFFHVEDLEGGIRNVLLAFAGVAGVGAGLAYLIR

[10] = target: T4, Mannose-6-phosphate isomerase (Homo sapiens, UniProt P34949); assay: human PMI inhibitors, high substrate, primary screen, biochemical, fluorescence intensity, high mannose 6-phosphate (AID 1220)
T4 sequence (P34949 whole entry): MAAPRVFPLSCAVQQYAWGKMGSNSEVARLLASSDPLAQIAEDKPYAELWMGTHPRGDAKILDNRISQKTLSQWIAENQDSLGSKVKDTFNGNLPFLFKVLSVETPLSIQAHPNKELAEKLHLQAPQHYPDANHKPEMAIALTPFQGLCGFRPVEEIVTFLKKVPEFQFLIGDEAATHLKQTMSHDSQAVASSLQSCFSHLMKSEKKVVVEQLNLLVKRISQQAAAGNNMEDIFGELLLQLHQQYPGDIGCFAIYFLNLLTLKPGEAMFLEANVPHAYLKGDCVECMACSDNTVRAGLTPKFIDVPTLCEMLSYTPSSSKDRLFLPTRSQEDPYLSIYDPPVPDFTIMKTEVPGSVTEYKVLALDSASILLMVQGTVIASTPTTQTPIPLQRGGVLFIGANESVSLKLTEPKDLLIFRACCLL

[11] = control 3'UTR Renilla luciferase suppression, dose response, counter-screen for Shn3 inhibitor project, cell-based, Clone20-Shn3RL, cherry-picked (AID 624133); type: functional
[12] = Shn3 3'UTR reporter inhibitors, dose response, cell-based, Clone20 osteoblasts, firefly luciferase, cherry-picked (AID 624132); type: functional;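 note: firefly luciferase luminescence from reporter carrying the Shn3 3'UTR in osteoblasts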
INS1 = assay: beta cell apoptosis inhibitors, cytokine rescue, dose response, luminescence, retest (AID 449756); type: functional, cell-based; conditions: Rattus norvegicus;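 note: cell death triggered by IL-1 beta plus TNF-alpha plus IFN-gamma mixture; protective hits raise ATP signal compared with cytokine alone wells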
[13] = HepG2 cell cytotoxicity, dose response, cytotoxicity control for Shn3 inhibitor project, CellTiter-Glo, cherry-picked (AID 624134); type: functional, cell-based
[14] = target: T5, Heat shock factor protein 1 (Mus musculus, UniProt P38532); assay: inhibition of MG132-induced HSE-luciferase signal, confirmation, cell-based, NIH3T3, luminescence, dose retest (AID 2382); type: functional;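 note: NIH3T3 fibroblasts with HSF1-driven luciferase reporter stressed by proteasome inhibitor MG132; luminescence from HSF1-driven luciferase expression after 8 hours of MG132 stress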
T5 sequence (P38532 whole entry): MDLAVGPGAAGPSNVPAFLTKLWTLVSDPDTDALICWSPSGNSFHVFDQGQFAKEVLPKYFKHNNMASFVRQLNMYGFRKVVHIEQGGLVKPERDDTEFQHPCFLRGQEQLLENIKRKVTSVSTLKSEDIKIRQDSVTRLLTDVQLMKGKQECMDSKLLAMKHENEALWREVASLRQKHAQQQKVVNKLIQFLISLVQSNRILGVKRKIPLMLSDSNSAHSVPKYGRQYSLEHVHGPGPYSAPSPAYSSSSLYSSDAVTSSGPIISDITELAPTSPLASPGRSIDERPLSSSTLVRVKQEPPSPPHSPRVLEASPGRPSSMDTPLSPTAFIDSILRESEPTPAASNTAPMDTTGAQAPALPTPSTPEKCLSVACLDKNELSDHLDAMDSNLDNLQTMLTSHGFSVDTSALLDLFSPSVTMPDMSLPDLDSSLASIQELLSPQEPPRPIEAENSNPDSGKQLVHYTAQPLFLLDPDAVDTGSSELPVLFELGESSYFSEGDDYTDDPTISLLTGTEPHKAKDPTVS

[15] = cytotoxicity in HEK-293T cells, dose response, cytotoxicity control for TCR NF-kB inhibitor project, luminescence, T-cell screen hits (AID 489026); type: functional, cell-based;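 note: cells exposed to compound about 14 hours before the viability readout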
Genome polyprotein = Genome polyprotein (dengue virus type 2, UniProt P29990); assay: Dengue-2 NS5 methyltransferase inhibitors, primary screen, biochemical, confirmation dose response (AID 588689); type: functional
Chain of Genome polyprotein (P29990 2492-3391 limits assumed): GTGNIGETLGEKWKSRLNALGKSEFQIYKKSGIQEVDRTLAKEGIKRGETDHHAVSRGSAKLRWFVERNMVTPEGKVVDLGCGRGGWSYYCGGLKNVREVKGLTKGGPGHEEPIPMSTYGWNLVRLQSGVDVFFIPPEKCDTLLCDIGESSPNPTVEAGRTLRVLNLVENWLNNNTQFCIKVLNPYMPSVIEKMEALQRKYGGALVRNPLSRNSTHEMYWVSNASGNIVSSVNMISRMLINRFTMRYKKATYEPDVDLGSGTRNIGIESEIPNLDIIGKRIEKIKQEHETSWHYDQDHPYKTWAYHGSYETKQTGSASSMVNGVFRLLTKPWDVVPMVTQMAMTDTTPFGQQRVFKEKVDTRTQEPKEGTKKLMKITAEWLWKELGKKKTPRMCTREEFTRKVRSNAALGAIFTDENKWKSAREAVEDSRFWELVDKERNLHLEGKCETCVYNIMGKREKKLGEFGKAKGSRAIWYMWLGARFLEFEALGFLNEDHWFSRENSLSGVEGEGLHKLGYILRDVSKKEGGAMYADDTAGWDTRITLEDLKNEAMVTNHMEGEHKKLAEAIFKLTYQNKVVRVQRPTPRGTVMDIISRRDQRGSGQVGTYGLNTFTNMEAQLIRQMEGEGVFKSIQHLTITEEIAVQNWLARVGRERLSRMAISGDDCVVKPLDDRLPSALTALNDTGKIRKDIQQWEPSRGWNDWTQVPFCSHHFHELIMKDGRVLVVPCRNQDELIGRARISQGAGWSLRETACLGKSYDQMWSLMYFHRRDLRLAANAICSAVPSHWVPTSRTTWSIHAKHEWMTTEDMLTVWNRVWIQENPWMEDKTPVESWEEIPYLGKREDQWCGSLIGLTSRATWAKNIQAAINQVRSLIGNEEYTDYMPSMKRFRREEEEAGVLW

T1 sequence (P98170 whole entry): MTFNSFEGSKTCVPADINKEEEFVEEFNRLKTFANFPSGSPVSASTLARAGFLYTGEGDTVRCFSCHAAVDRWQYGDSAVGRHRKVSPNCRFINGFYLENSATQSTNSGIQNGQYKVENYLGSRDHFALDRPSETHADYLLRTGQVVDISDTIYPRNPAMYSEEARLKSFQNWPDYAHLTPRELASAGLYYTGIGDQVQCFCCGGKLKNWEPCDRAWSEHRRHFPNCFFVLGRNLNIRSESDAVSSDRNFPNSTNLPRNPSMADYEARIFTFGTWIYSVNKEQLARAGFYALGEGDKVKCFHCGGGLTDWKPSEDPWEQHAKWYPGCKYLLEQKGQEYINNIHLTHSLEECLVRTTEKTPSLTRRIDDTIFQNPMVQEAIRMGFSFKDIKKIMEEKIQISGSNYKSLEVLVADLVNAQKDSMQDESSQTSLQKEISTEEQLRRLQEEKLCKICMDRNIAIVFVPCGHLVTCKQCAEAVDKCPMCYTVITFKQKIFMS

For `COc1ccc(-c2csc(NC(C)c3nc4cc(Cl)c(Cl)cc4n3CCCO)n2)cc1` (configuration not stated), the CC50 [1] was 15.4 µM (active).
With `CC(C)(C)OC(=O)N1CCC(NC(=O)c2[nH]cnc2C(=O)Nc2ccccc2)CC1` the CC50 [1] was > 40 µM (active).
With `CCN1C(=O)c2ccccc2[S+]([O-])c2ccc(C(=O)N3CCCCCC3)cc21` (configuration not stated) the IC50 [2] was > 100 µM (not active) and the IC50 [3] was > 100 µM (inactive).
In the case of `COc1ccc(-n2c(SCC(=O)Nc3cc(C)on3)nc3c(c2=O)SCC3)cc1`, the IC50 [2] is reported as > 100 µM (not active), the AC50 (HEK293) is reported as 98.6 µM (active) and the IC50 [3] is reported as > 100 µM (inactive).
In the case of `CCN(Cc1ccccc1)Cc1nnnn1Cc1ccccc1`, the CC50 [4] is reported as > 40 µM (active).
With `CN(Cc1ccccc1O)CC1CCCN(CCc2ccc(Cl)cc2)C1` (configuration not stated) the EC50 [5] was > 50 µM (active).
In the case of `CCOC(=O)c1cc2sccc2n1CC(=O)N1c2ccccc2CC1C` (configuration not stated), the IC50 (Coagulation factor XII) is reported as > 50 µM (inactive) and the EC50 [6] is reported as 445 µM (active).
In the case of `Cc1c(NC(=O)CSc2nc3ccccc3s2)c(=O)n(-c2ccccc2)n1C`, the IC50 (Coagulation factor XII) is reported as > 50 µM (inactive).
In the case of `c1ccc(-c2ncc3c(ccc4ccccc43)n2)cc1`, the EC50 [7] is reported as > 67.6 µM (inactive) and the IC50 [8] is reported as > 67.6 µM (inactive).
With `O=C(NCc1cccs1)C1CC(c2ccccc2O)=NO1` (configuration not stated) the IC50 [2] was > 100 µM (not active) and the IC50 [3] was > 100 µM (inactive).
In the case of `CN(C)C(=O)CSc1nnc([C@@H](N)Cc2ccccc2)o1`, the IC50 (Prothrombin) is reported as > 50 µM (not active) and the IC50 (Coagulation factor XII) is reported as > 50 µM (inactive).
For `COC(=O)Cn1c(=O)c(C)nc2ccccc21`, the EC50 [5] was > 50 µM (active).
For `CCC1C/C(=C/c2ccco2)C(=O)/C(=C/c2ccco2)C1` (configuration not stated), the CC50 [4] was > 40 µM (active).
In the case of `COCc1n[nH]c2c1C(c1c(F)cccc1Cl)C(C#N)=C(N)O2` (configuration not stated), the EC50 [5] is reported as > 50 µM (active).
In the case of `Cc1c(C(=O)N/N=C/c2ccc(-c3ccccc3[N+](=O)[O-])o2)sc(N)c1C#N`, the IC50 [9] is reported as 3.78 µM (active) and the IC50 [10] is reported as > 50 µM (not active).
For `C=C(C)C(=O)O[C@H]1C/C(C)=C\C(=O)/C=C(\C)[C@H](O)[C@@H]2OC(=O)C(=C)[C@@H]21`, the AC50 [11] was 11.1 µM (active), the AC50 [12] was 3.02 µM (active) and the CC50 [1] was 3.71 µM (active). The AC50 (INS1) was 8.02 µM (active), the AC50 [13] was 6.81 µM (active) and the EC50 [14] was 8.1 µM (active). For the same molecule, the IC50 [15] was > 80 µM (inactive).
With `Oc1ccc2ccccc2c1/C=N\C12CN3CCN(CN(C3)C1)C2` the IC50 [10] was 27.6 µM (active) and the IC50 (Genome polyprotein) was 53.9 µM (active).
